From patent publication US20060004197A1, “Sulfonamide-based compounds as protein tyrosine kinase inhibitors” (priority 2004, published 2006)
Read-outs that look alike come from different tables or passages of the source.

What was measured:
Format in all cases: biochemical
Recombinant human Src = biological target: T1, Recombinant human Src (Homo sapiens, UniProt P12931); experiment: Src tyrosine kinase activity, poly E4Y / 32P-ATP phosphorylation assay; conditions: for inhibition at 15 µg/mL: compound at 15 μg/mL
T1 construct: made in house; host or cells: baculovirus-insect cell system
T1 sequence (P12931 whole entry): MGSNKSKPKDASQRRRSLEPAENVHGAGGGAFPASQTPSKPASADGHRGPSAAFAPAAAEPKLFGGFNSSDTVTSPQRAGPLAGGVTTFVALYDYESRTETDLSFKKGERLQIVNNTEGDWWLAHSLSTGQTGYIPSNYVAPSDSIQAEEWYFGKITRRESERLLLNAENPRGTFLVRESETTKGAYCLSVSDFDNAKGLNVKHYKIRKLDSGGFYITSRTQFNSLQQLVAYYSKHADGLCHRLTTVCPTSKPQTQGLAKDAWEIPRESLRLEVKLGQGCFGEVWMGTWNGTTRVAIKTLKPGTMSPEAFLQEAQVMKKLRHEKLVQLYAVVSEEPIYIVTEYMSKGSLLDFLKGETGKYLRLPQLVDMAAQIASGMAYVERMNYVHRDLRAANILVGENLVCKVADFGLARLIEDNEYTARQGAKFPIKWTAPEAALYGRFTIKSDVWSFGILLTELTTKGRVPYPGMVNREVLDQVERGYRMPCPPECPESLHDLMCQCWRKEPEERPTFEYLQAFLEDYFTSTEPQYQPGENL

FGF receptor (FGFr) = experiment: FGFr tyrosine kinase activity, poly E4Y / 32P-ATP phosphorylation assay; conditions: Table 2, Formula I compounds; NI = no inhibition at 100 μg/mL
Recombinant Csk = Recombinant Csk (Homo sapiens, UniProt P41240); experiment: Csk tyrosine kinase activity, poly E4Y / 32P-ATP phosphorylation assay
[1] = Table 2, Formula I compounds, NI = no inhibition at 100 μg/mL
[2] = Table 3, Formula II compounds, NI = no inhibition at 100 μg/mL
[3] = poly E4Y / 32P-ATP, Formula IV compounds
[4] = read-out: % Inhibition at 15 μg/mL Src %
[5] = Table 6, Formula V compounds, read-out: % Inhibition at 15 μg/mL Src (%)

IC50 (Recombinant human Src; [1]) [µM]	IC50 (FGF receptor (FGFr)) [µM]	IC50 (Recombinant Csk; [1]) [µM]	SMILES	further results
3.4	5.8	10.8	COc1ccc(Sc2cc(NS(=O)(=O)c3ccc(C)cc3)c(NS(=O)(=O)c3ccc(C)cc3)cc2[N+](=O)[O-])cc1 [Compound 4a, N-[4-(4-methoxy-phenylsulfanyl)-5-nitro-2-(4-toluenesulfonylamino)-phenyl]-4-toluenesulfonamide]	–
7	20	15	COc1ccccc1Sc1cc(NS(=O)(=O)c2ccc(C)cc2)c(NS(=O)(=O)c2ccc(C)cc2)cc1[N+](=O)[O-] [Compound 4b, N-[4-(2-methoxy-phenylsulfanyl)-5-nitro-2-(4-toluenesulfonylamino)-phenyl]-4-toluenesulfonamide]	–
3.5	7.5	8.3	COc1cccc(Sc2cc(NS(=O)(=O)c3ccc(C)cc3)c(NS(=O)(=O)c3ccc(C)cc3)cc2[N+](=O)[O-])c1 [Compound 4c, N-[4-(3-methoxy-phenylsulfanyl)-5-nitro-2-(4-toluenesulfonylamino)-phenyl]-4-toluenesulfonamide]	–
5.5	23.9	23.9	Cc1ccc(S(=O)(=O)Nc2cc(Sc3ccc(O)cc3)c([N+](=O)[O-])cc2NS(=O)(=O)c2ccc(C)cc2)cc1 [Compound 4d, N-[4-(4-hydroxy-phenylsulfanyl)-5-nitro-2-(4-toluenesulfonylamino)-phenyl]-4-toluenesulfonamide]	–
8	1.7	23	Cc1ccc(S(=O)(=O)Nc2cc(Sc3ccc(Cl)cc3)c([N+](=O)[O-])cc2NS(=O)(=O)c2ccc(C)cc2)cc1 [Compound 4e, N-[4-(4-chloro-phenylsulfanyl)-5-nitro-2-(4-toluenesulfonylamino)-phenyl]-4-toluenesulfonamide]	–
2.5	10.8	10.8	Cc1ccc(S(=O)(=O)Nc2cc(Sc3ccccc3Cl)c([N+](=O)[O-])cc2NS(=O)(=O)c2ccc(C)cc2)cc1 [Compound 4f, N-[4-(2-chloro-phenylsulfanyl)-5-nitro-2-(4-toluenesulfonylamino)-phenyl]-4-toluenesulfonamide]	–
1.6	5.8	9.1	Cc1ccc(S(=O)(=O)Nc2cc(Sc3cccc(Cl)c3)c([N+](=O)[O-])cc2NS(=O)(=O)c2ccc(C)cc2)cc1 [Compound 4g, N-[4-(3-chloro-phenylsulfanyl)-5-nitro-2-(4-toluenesulfonylamino)-phenyl]-4-toluenesulfonamide]	–
1.8	7.8	8.6	Cc1ccc(S(=O)(=O)Nc2cc(Sc3ccc(F)cc3)c([N+](=O)[O-])cc2NS(=O)(=O)c2ccc(C)cc2)cc1 [Compound 4h, N-[4-(4-fluoro-phenylsulfanyl)-5-nitro-2-(4-toluenesulfonylamino)-phenyl]-4-toluenesulfonamide]	–
1.7	5.1	10.3	Cc1ccc(Sc2cc(NS(=O)(=O)c3ccc(C)cc3)c(NS(=O)(=O)c3ccc(C)cc3)cc2[N+](=O)[O-])cc1 [Compound 4i, N-[5-nitro-2-(4-toluenesulfonylamino)-4-(p-tolylsulfanyl)-phenyl]-4-toluenesulfonamide]	–
1.7	8.6	12	Cc1ccc(S(=O)(=O)Nc2cc(Sc3ccccc3C)c([N+](=O)[O-])cc2NS(=O)(=O)c2ccc(C)cc2)cc1 [Compound 4j, N-[5-nitro-2-(4-toluenesulfonylamino)-4-(o-tolylsulfanyl)-phenyl]-4-toluenesulfonamide]	–
1.9	3.1	9.4	Cc1ccc(S(=O)(=O)Nc2cc(Sc3cccc(C)c3)c([N+](=O)[O-])cc2NS(=O)(=O)c2ccc(C)cc2)cc1 [Compound 4k, N-[5-nitro-2-(4-toluenesulfonylamino)-4-(m-tolylsulfanyl)-phenyl]-4-toluenesulfonamide]	–
1	4.7	5.4	Cc1ccc(S(=O)(=O)Nc2cc(Sc3c(C)cccc3C)c([N+](=O)[O-])cc2NS(=O)(=O)c2ccc(C)cc2)cc1 [Compound 4m, N-[4-(2,6-dimethyl-phenylsulfanyl)-5-nitro-2-(4-toluenesulfonylamino)-phenyl]-4-toluenesulfonamide]	–
1.3	4.3	5.7	Cc1ccc(S(=O)(=O)Nc2cc(Sc3ccccc3C(C)C)c([N+](=O)[O-])cc2NS(=O)(=O)c2ccc(C)cc2)cc1 [Compound 4n, N-[4-(2-isopropyl-phenylsulfanyl)-5-nitro-2-(4-toluenesulfonylamino)-phenyl]-4-toluenesulfonamide]	–
1.3	1.8	5.7	Cc1ccc(S(=O)(=O)Nc2cc(Sc3ccccc3)c([N+](=O)[O-])cc2NS(=O)(=O)c2ccc(C)cc2)cc1 [Compound 4o, N-[5-nitro-4-phenylsulfanyl-2-(4-toluenesulfonylamino)-phenyl]-4-toluenesulfonamide]	–
1.6	7.3	11.3	Cc1ccc(S(=O)(=O)Nc2cc(SCc3ccco3)c([N+](=O)[O-])cc2NS(=O)(=O)c2ccc(C)cc2)cc1 [Compound 4p, N-[4-(furan-2-ylmethylsulfanyl)-5-nitro-2-(4-toluenesulfonylamino)-phenyl]-4-toluenesulfonamide]	–
1.2	–	5.5	Cc1ccc(S(=O)(=O)Nc2cc(SCc3ccccc3)c([N+](=O)[O-])cc2NS(=O)(=O)c2ccc(C)cc2)cc1 [Compound 4t, N-[4-benzylsulfanyl-5-nitro-2-(4-toluenesulfonylamino)-phenyl]-4-toluenesulfonamide]	–

IC50 (Recombinant human Src; [1]) [µM]	IC50 (FGF receptor (FGFr)) [µM]	IC50 (Recombinant Csk; [1]) [µM]	SMILES	further results
–	–	–	Cc1ccc(S(=O)(=O)Nc2ccc(Cl)cc2NS(=O)(=O)c2ccc(C)cc2)cc1 [Compound 6, N-[4-chloro-2-(4-toluenesulfonylamino)-phenyl]-4-toluenesulfonamide]	IC50 (Recombinant human Src; [2]): > 222 µM; IC50 (Recombinant Csk; [2]): > 222 µM
–	–	–	COc1ccc(Oc2ccc(NS(=O)(=O)c3ccc([N+](=O)[O-])cc3)c(NS(=O)(=O)c3ccc([N+](=O)[O-])cc3)c2)cc1 [Compound 12r, N-[4-(4-methoxy-phenoxy)-2-(4-nitrobenzenesulfonylamino)-phenyl]-4-nitrobenzenesulfonamide]	IC50 (Recombinant human Src; [2]): 6.6 µM; IC50 (Recombinant Csk; [2]): > 167 µM
–	–	–	Cc1ccc(S(=O)(=O)Nc2ccc(-n3cnc4ccccc43)cc2NS(=O)(=O)c2ccc(C)cc2)cc1 [Compound 17b, N-[4-(benzimidazol-1-yl)-2-(4-toluenesulfonylamino)-phenyl]-4-toluenesulfonamide]	IC50 (Recombinant human Src; [2]): 21 µM; IC50 (Recombinant Csk; [2]): 83 µM
–	–	–	COc1ccc(Oc2ccc(NS(=O)(=O)c3ccc(C)cc3)c(OP(=O)(O)O)c2)cc1 [Compound 43, [5-(4-methoxy-phenoxy)-2-(4-toluenesulfonylamino)-phenyl]-phosphate]	IC50 (Recombinant human Src; [3]): 13 µM; IC50 (Recombinant Csk; [3]): > 215 µM
–	–	–	COC(=O)c1cc(Oc2ccc(OC)cc2)ccc1NS(=O)(=O)c1ccc(C)cc1 [Compound 67, methyl 5-(4-methoxy-phenoxy)-2-(4-toluenesulfonylamino)-benzoate]	IC50 (Recombinant human Src; [3]): > 234 µM; IC50 (Recombinant Csk; [3]): > 234 µM
–	–	–	COc1ccc(OCc2ccc(CN)c(NS(=O)(=O)c3ccc(C)cc3)c2)cc1 [Compound 71w, N-[2-aminomethyl-5-(4-methoxy-phenoxymethyl)-phenyl]-4-toluenesulfonamide]	inhibition at 15 µg/mL (Recombinant human Src; [4]): 9%
–	–	–	COc1ccc(OCc2ccc(CNS(C)(=O)=O)c(NS(=O)(=O)c3ccc4cc(C)ccc4c3)c2)cc1 [Compound 71x, N-[2-(methanesulfonylamino-methyl)-5-(4-methoxy-phenoxymethyl)-phenyl]-6-methyl-naphthalene-2-sulfonamide]	inhibition at 15 µg/mL (Recombinant human Src; [4]): 20%
–	–	–	Cc1ccc(C(=O)Nc2cc(N3CCOCC3)c([N+](=O)[O-])cc2NC(=O)c2ccc(C)cc2)cc1 [Compound 71y, N-(4-morpholin-4-yl-5-nitro-2-(4-toluoylamino)-phenyl)-4-toluamide]	inhibition at 15 µg/mL (Recombinant human Src; [4]): 14%
–	–	–	CCCC(=O)Nc1cc(Oc2ccc(OC)cc2)ccc1NS(=O)(=O)c1ccc(C)cc1 [Compound 71z, N-[5-(4-methoxy-phenoxy)-2-(4-toluenesulfonylamino)-phenyl]-butyramide]	inhibition at 15 µg/mL (Recombinant human Src; [4]): 5%
–	–	–	COc1ccc(Oc2ccc3[nH]c(=O)n(S(=O)(=O)c4ccc(C)cc4)c3c2)cc1 [Compound 72a, 6-(4-methoxy-phenoxy)-1-(4-toluenesulfonyl)-1,3-dihydro-benzoimidazol-2-one]	inhibition at 15 µg/mL (Recombinant human Src; [5]): 21%
–	–	–	COc1ccc(Oc2ccc3c(c2)[nH]c(=O)n3S(=O)(=O)c2ccc(C)cc2)cc1 [Compound 72b, 5-(4-methoxy-phenoxy)-1-(4-toluenesulfonyl)-1,3-dihydro-benzoimidazol-2-one]	inhibition at 15 µg/mL (Recombinant human Src; [5]): 19%
–	–	–	COc1ccc(Oc2ccc3c(c2)n(S(=O)(=O)c2ccc(C)cc2)c(=O)n3S(=O)(=O)c2ccc(C)cc2)cc1 [Compound 72c, 5-(4-methoxy-phenoxy)-1,3-bis-(4-toluenesulfonyl)-1,3-dihydro-benzoimidazol-2-one]	inhibition at 15 µg/mL (Recombinant human Src; [5]): 22%
–	–	–	COc1ccc(Oc2ccc3c(c2)NS(=O)(=O)N3)cc1 [Compound 72d, 5-(4-methoxy-phenoxy)-1,3-dihydro-benzo[1,2,5]thiadiazole 2,2-dioxide]	inhibition at 15 µg/mL (Recombinant human Src; [5]): 12%
–	–	–	COc1ccc(Oc2ccc3[nH]c(=O)[nH]c3c2)cc1 [Compound 72e, 5-(4-methoxy-phenoxy)-1,3-dihydro-benzoimidazol-2-one]	inhibition at 15 µg/mL (Recombinant human Src; [5]): 4%
–	–	–	COc1ccc(Oc2ccc3c(c2)NS(=O)(=O)N3S(=O)(=O)c2ccc(C)cc2)cc1 [Compound 72f, 5-(4-methoxy-phenoxy)-1-(4-toluenesulfonyl)-1,3-dihydro-benzo[1,2,5]thiadiazole 2,2-dioxide]	inhibition at 15 µg/mL (Recombinant human Src; [5]): 14%
